Usually pEC50 stands for the EC50 on a negative log10 scale, so that one unit is a factor of ten.

From BindingDB's records for doi:10.1016/j.bmc.2018.11.013 (Csir-Indian Institute of Integrative Medicine, 2018) come the findings set out here.

pEC50: −log10 of the molar value.

A short description of this data set: Inhibition of human CYP1A1 expressed in HEK293 cells assessed as reduction in CYP1A1 mediated B[alpha]P-7,8- dihydrodiol induced-toxicity by measuring EC50 at 3 times of IC50 concentration by MTT assay (Rvb = 1.4 +/ 0.4 uM). A general note: Tetrazolium assays rely on reduction of a dye to a coloured formazan, in cell work by metabolically active cells.
`O=c1cc(-c2ccccc2)oc2c1ccc1occc12` [LANCEOLATIN B]: the pEC50 was 4.84.

With `COc1c(C(=O)/C=C(\O)c2ccccc2)ccc2occc12` [Pongamol], the pEC50 is 4.99.

As for `COc1c(-c2ccc3c(c2)OCO3)oc2c(ccc3occc32)c1=O` [Pongapin], the pEC50 is 4.83.
